Data taken from patent US20250304893A1, “PERFUSABLE 3D TUBULE-ON-CHIP MODEL DERIVED FROM KIDNEY ORGANOIDS WITH IMPROVED DRUG UPTAKE” (President and Fellows of Harvard College, priority 2022, published 2025).

Tests used:
OPTECs = experiment: 2D OPTEC culture with media supplements to minimize epithelial to mesenchymal transition; assay type: cell-based, human
Procedure: Organoid-derived PTECs (OPTECs) were cultured in 24-well plates pretreated with 1:20 laminin-511 (Biolamina LN511) in DPBS with calcium and magnesium. For passages 0 and 1, the OPTECs were cultured in REGM media supplemented with 1% FBS. Upon reaching passage 2, the OPTECs were cultured using LPTEC media supplemented with 1% FBS and 10 μM SB431542 (ab120163). Each passage was performed when the cells reached ˜90% confluency by first washing the cells with DPBS without calcium and magnesium, treating with 0.05% trypsin/EDTA for 3-5 min (or until cells lifted off the plate), followed by quenching with culture medium, centrifuging at 240 ref for 4 min, resuspending in culture media, and seeding each laminin pre-treated well at a density of 70,000-100,000 cells/cm^2.
Next, the effects of two different media were tested: (1) modified DMEM F-12 medium described by previous work^14 (LPTEC) and (2) commercially available renal epithelial growth medium (REGM). […] To further promote cell attachment, growth, and proliferation, 1% FBS was added to the media. To minimize epithelial to mesenchymal transition (EMT), the effects of transforming growth factor (TGF-β), bone morphogenic protein 7 (BMP7) and TGF-β/activin/NODAL pathway (SB431542) inhibitors were explored (FIG. 6k-l)^26. […]

OPTEC tubules [1] = settings: 48 h
Procedure: Before beginning these experiments, three important steps were carried out: (1) all reservoirs were supplied with fresh media, (2) all outlet tubing was cut to the same length, and (3) all chips were subjected to one-way rather than recirculating back to the media reservoir. After each chip within the MCDs was subjected to one-way flow (2 μL/min) for 4 h, a baseline sample of the perfusate was collected from the luminal outlet tubing for 3 h into a 1.6 mL Eppendorf tube. Next, cisplatin (50 μM) or aristolochic acid (25 μM) was delivered basolaterally on chip by manually pipetting each drug solution to the appropriate basal media reservoir. Next, all tubing was reconnected to the peristaltic pump and allowed to flow at a flow rate of 2 μL/min. After 48 h, another sample of the perfusate was collected from the luminal outlet tubing for 3 h into a 1.6 mL Eppendorf tube. All collected luminal media samples were spun down at 5000 rcf for 5 min to remove cellular debris. Each supernatant was transferred to a fresh tube and stored at −20° C. to run the LDH assay. For samples pre-treated with inhibitors, cimetidine (1 mM) or probenecid (2 mM) was first added to the basal reservoir, delivered basolaterally, and allowed to diffuse through the gelatin-fibrin matrix during recirculating flow for 1 h.
LDH assays were performed according to the manufacturer's instructions (Promega, CytoTox Non-Radioactive Cytotoxicity Assay, G1780). The frozen media samples were thawed at room temperature and used after this first thaw cycle. Next, 50 μL of each media was transferred to a 96-well plate and incubated at 37° C. for 30 min with 50 μL of CytoTox 96 reagent. 50 μL of stop solution was then added, all bubbles were removed using a syringe, and their absorbance was recorded at 490 nm using a plate reader.
(§1) Normalized LDH release was calculated using the following equation: […]
(§2) LDH48 was the recorded absorbance of the 48-h perfusate sample and LDHbaseline was the recorded absorbance of baseline perfusate sample before drug exposure. Normalized LDH release was calculated for each of the tubules individually and plotted into sample groups comparing OPTEC-on-chip and PTEC-TERT1-on-chip models subjected to each drug ±inhibitor.
To assess nephrotoxicity, luminal perfusate was collected and LDH analyses were performed. LDH is a cytosolic enzyme found in nearly all cell types, including PTECs, that is released upon cellular damage^29. […] Due to differences in their baseline LDH release among different tubules across the two cell types, a normalized LDH release (LDH release at 48 h relative to baseline release) was determined for each sample, i.e., OPTEC and PTEC-TERT1 tubules without drug, with drug, and with drug and corresponding inhibitors for OCT2 and OAT1/3 transporters, respectively.

PTEC-TERT1 tubules = experiment: Nephrotoxicity testing: normalized LDH release in luminal perfusate of PTEC-TERT1-on-chip tubules (control chips); assay type: cell-based, human
Procedure: Before beginning these experiments, three important steps were carried out: (1) all reservoirs were supplied with fresh media, (2) all outlet tubing was cut to the same length, and (3) all chips were subjected to one-way rather than recirculating back to the media reservoir. After each chip within the MCDs was subjected to one-way flow (2 μL/min) for 4 h, a baseline sample of the perfusate was collected from the luminal outlet tubing for 3 h into a 1.6 mL Eppendorf tube. Next, cisplatin (50 μM) or aristolochic acid (25 μM) was delivered basolaterally on chip by manually pipetting each drug solution to the appropriate basal media reservoir. […]
LDH assays were performed according to the manufacturer's instructions (Promega, CytoTox Non-Radioactive Cytotoxicity Assay, G1780). […] 50 μL of stop solution was then added, all bubbles were removed using a syringe, and their absorbance was recorded at 490 nm using a plate reader.
as §1
as §2, with “±inhibitor. […]” for “±inhibitor.”

OPTEC tubules [2] = experiment: Diffusional permeability measurement of FITC-inulin through tubules on chip; assay type: cell-based, human; settings: 4.5 kDa FITC-inulin 100 μg/mL perfused through lumen, OPTEC tubules vs PTEC-TERT1 tubules (control)
Procedure: The barrier function of the 3D OPTECs- and PTEC-TERT1 s based models was assessed by measuring the diffusional permeability of 4.5 kDa inulin. This compound was selected because is neither up taken up nor secreted by PTECs in-vivo. FITC-labeled inulin (Sigma product F3272) was dissolved in prewarmed LPTEC media at a concentration of 100 μg/mL and perfused through the luminal channel at a rate of 20 μL/min for 3 min and 1.5 μL/min thereafter for 15 min. The diffusion of FITC-inulin was calculated by: […]
Where Pd is the diffusional permeability coefficient, I1 is the average intensity at the initial time point, I2 is the average intensity at time t, Ib is the background intensity taken before perfusion of FITC-inulin, and dis the diameter of the channel^13.

UB cells = experiment: FITC-inulin retention in perfused epithelialized UB channels on chip (barrier function); assay type: cell-based, human; settings: perfused epithelialized UB channels vs empty channels, after 1 hour
Procedure: To fabricate this chip, first the various chip components were assembled (FIG. 17A) and ECM was added to an inner reservoir around a pin and crosslinked. The pin was then removed forming an open channel that can be seeded with cells (FIG. 17B). This design allowed for easy access to the ECM and medium bathing the ECM. After seeding, cells formed confluent monolayers along channel walls within 3-7 days (FIG. 16C,D,E). Perfused epithelialized channels retained FITC-inulin after 1 hour relative to empty channels, indicating barrier function (FIG. 16F,G).

For `NC(=O)c1ccc(-c2nc(-c3ccc4c(c3)OCO4)c(-c3ccccn3)[nH]2)cc1` [SB431542], the “cell morphology during prolonged cell culture” value (OPTECs; 10 μM, OPTECs 2D culture) was “cuboidal cell morphology” and the “EMT marker expression in 2D OPTEC monolayers” value (OPTECs; SB431542 as media supplement, 2D culture) was “down regulation of EMT markers”.
For `N.N.[Cl][Pt][Cl]` [cisplatin], the “normalized LDH response compared to PTEC-TERT1 s” value (OPTEC tubules [1]; 50 μM cisplatin delivered basolaterally, OPTEC tubules on chip) was “significantly higher”.
`COc1cccc2c1cc([N+](=O)[O-])c1c(C(=O)O)cc3c(c12)OCO3` [aristolochic acid] was tested, and the “LDH release compared to PTEC-TERT1 tubules” value (OPTEC tubules [1]; 25 μM aristolochic acid delivered basolaterally, OPTEC tubules on chip) was “significantly higher”.
With `CN/C(=N/CCSCc1nc[nH]c1C)NC#N` [cimetidine] the “effect of OCT2 inhibition on normalized LDH release” value (PTEC-TERT1 tubules; cimetidine 1 mM, same cisplatin dose (50 μM)) was “far less effect” and the “decrease of normalized LDH release upon OCT2 inhibitor (factor)” value (OPTEC tubules [1]; cimetidine 1 mM pre-treatment, 50 μM cisplatin, OPTEC tubules) was > 2.
With FITC-inulin the diffusional permeability (OPTEC tubules [2]) was “comparable to that observed for PTEC-TERT1 tubules” and the “retention of FITC-inulin in channel (barrier function)” value (UB cells) was “retained”.
For `CCCN(CCC)S(=O)(=O)c1ccc(C(=O)O)cc1` [probenecid], the “effect of OAT1/3 inhibition on normalized LDH release” value (PTEC-TERT1 tubules; probenecid 2 mM, same aristolochic acid dose (25 μM)) was “negligible effect” and the “normalized LDH release upon OAT1/3 inhibitor” value (OPTEC tubules [1]; probenecid 2 mM pre-treatment, 25 μM aristolochic acid, OPTEC tubules) was “substantially reduced”.
